Test results published in patent US11083725B2 (priority 2014, dated 2021).

Tested on: NHBE cells
Assay: Biolog metabolic array: substrate use by NHBE cells with or without CA09 infection
Assay type: cell-based, human
Details: for Substrate use, 590 nm absorbance normalized to zero hour, 0 hr: Biolog PMM2, 0 hr; for Substrate use, 590 nm absorbance normalized to zero hour, 1 hr: Biolog PMM2, 1 hr; for Substrate use, 590 nm absorbance normalized to zero hour, 5 hr: Biolog PMM2, 5 hr; for Substrate use, 590 nm absorbance normalized to zero hour, 7 hr: Biolog PMM2, 7 hr
[1] = Control (uninfected) NHBE cells
[2] = Virus (CA09, MOI 1) infected NHBE cells
[3] = Virus (CA09-infected, MOI 1) NHBE cells
[4] = Virus (CA09-infected NHBE cells, MOI 1)
[5] = Virus: CA09-infected NHBE cells, MOI 1, Biolog PMM2

Structure (SMILES): CO[C@H]1O[C@H](CO)[C@@H](O)[C@H](O)[C@H]1O [a-Methyl-D-Glucoside]
- 590 nm absorbance normalized to zero hour (substrate use), 0 hr [1]: 1.00
- 590 nm absorbance normalized to zero hour (substrate use), 1 hr [1]: 1.18
- 590 nm absorbance normalized to zero hour (substrate use), 2 hr [1]: 1.07
- 590 nm absorbance normalized to zero hour (substrate use), 3 hr [1]: 1.02
- 590 nm absorbance normalized to zero hour (substrate use), 4 hr [1]: 0.58
- 590 nm absorbance normalized to zero hour (substrate use), 6 hr [1]: 0.90
- 590 nm absorbance normalized to zero hour (substrate use), 8 hr [1]: 0.74
- 590 nm absorbance normalized to zero hour (substrate use), 9 hr [1]: 0.79
- 590 nm absorbance normalized to zero hour (substrate use), 10 hr [1]: 0.83
- 590 nm absorbance normalized to zero hour (substrate use), 11 hr [1]: 0.93
- Substrate use, 590 nm absorbance normalized to zero hour, 0 hr [1]: 1.00
- Substrate use, 590 nm absorbance normalized to zero hour, 1 hr [1]: 1.18
- Substrate use, 590 nm absorbance normalized to zero hour, 5 hr [1]: 0.76
- Substrate use, 590 nm absorbance normalized to zero hour, 7 hr [1]: 0.68
- Substrate use, 590 nm absorbance normalized to zero hour, 0 hr [2]: 1.00
- Substrate use, 590 nm absorbance normalized to zero hour, 1 hr [2]: 1.29
- Substrate use, 590 nm absorbance normalized to zero hour, 5 hr [2]: 2.31
- Substrate use, 590 nm absorbance normalized to zero hour, 7 hr [2]: 2.67
- 590 nm absorbance normalized to zero hour (substrate use), 0 hr [3]: 1.00
- 590 nm absorbance normalized to zero hour (substrate use), 1 hr [3]: 1.29
- 590 nm absorbance normalized to zero hour (substrate use), 2 hr [3]: 1.66
- 590 nm absorbance normalized to zero hour (substrate use), 3 hr [3]: 1.87
- 590 nm absorbance normalized to zero hour (substrate use), 4 hr [3]: 1.99
- 590 nm absorbance normalized to zero hour (substrate use), 6 hr [3]: 2.50
- 590 nm absorbance normalized to zero hour (substrate use), 8 hr [3]: 2.77
- 590 nm absorbance normalized to zero hour (substrate use), 9 hr [3]: 3.14
- 590 nm absorbance normalized to zero hour (substrate use), 10 hr [3]: 3.10
- 590 nm absorbance normalized to zero hour (substrate use), 11 hr [3]: 3.31

Structure (SMILES): O=C(O)C[C@@H](O)C(=O)O [D-Malic Acid]
- 590 nm absorbance normalized to zero hour (substrate use), 0 hr [1]: 1.00
- 590 nm absorbance normalized to zero hour (substrate use), 1 hr [1]: 1.49
- 590 nm absorbance normalized to zero hour (substrate use), 2 hr [1]: 2.03
- 590 nm absorbance normalized to zero hour (substrate use), 3 hr [1]: 2.06
- 590 nm absorbance normalized to zero hour (substrate use), 4 hr [1]: 2.25
- 590 nm absorbance normalized to zero hour (substrate use), 6 hr [1]: 2.19
- 590 nm absorbance normalized to zero hour (substrate use), 8 hr [1]: 3.00
- 590 nm absorbance normalized to zero hour (substrate use), 9 hr [1]: 3.06
- 590 nm absorbance normalized to zero hour (substrate use), 10 hr [1]: 3.20
- 590 nm absorbance normalized to zero hour (substrate use), 11 hr [1]: 3.52
- Substrate use, 590 nm absorbance normalized to zero hour, 0 hr [1]: 1.00
- Substrate use, 590 nm absorbance normalized to zero hour, 1 hr [1]: 1.49
- Substrate use, 590 nm absorbance normalized to zero hour, 5 hr [1]: 2.63
- Substrate use, 590 nm absorbance normalized to zero hour, 7 hr [1]: 2.87
- 590 nm absorbance normalized to zero hour (substrate use), 0 hr [4]: 1.00
- 590 nm absorbance normalized to zero hour (substrate use), 1 hr [4]: 2.26
- 590 nm absorbance normalized to zero hour (substrate use), 2 hr [4]: 2.49
- 590 nm absorbance normalized to zero hour (substrate use), 3 hr [4]: 2.54
- 590 nm absorbance normalized to zero hour (substrate use), 4 hr [4]: 2.71
- 590 nm absorbance normalized to zero hour (substrate use), 5 hr [4]: 2.61
- 590 nm absorbance normalized to zero hour (substrate use), 6 hr [4]: 1.75
- 590 nm absorbance normalized to zero hour (substrate use), 7 hr [4]: 1.82
- 590 nm absorbance normalized to zero hour (substrate use), 8 hr [4]: 1.98
- 590 nm absorbance normalized to zero hour (substrate use), 9 hr [4]: 1.95
- 590 nm absorbance normalized to zero hour (substrate use), 10 hr [4]: 2.27
- 590 nm absorbance normalized to zero hour (substrate use), 11 hr [4]: 2.21
- 590 nm absorbance normalized to zero hour (substrate use), 0 hr [5]: 1.00
- 590 nm absorbance normalized to zero hour (substrate use), 1 hr [5]: 2.26
- 590 nm absorbance normalized to zero hour (substrate use), 2 hr [5]: 2.49
- 590 nm absorbance normalized to zero hour (substrate use), 3 hr [5]: 2.54
- 590 nm absorbance normalized to zero hour (substrate use), 4 hr [5]: 2.71
- 590 nm absorbance normalized to zero hour (substrate use), 5 hr [5]: 2.61
- 590 nm absorbance normalized to zero hour (substrate use), 6 hr [5]: 1.75
- 590 nm absorbance normalized to zero hour (substrate use), 7 hr [5]: 1.82
- 590 nm absorbance normalized to zero hour (substrate use), 8 hr [5]: 1.98
- 590 nm absorbance normalized to zero hour (substrate use), 9 hr [5]: 1.95
- 590 nm absorbance normalized to zero hour (substrate use), 10 hr [5]: 2.27
- 590 nm absorbance normalized to zero hour (substrate use), 11 hr [5]: 2.21

Structure (SMILES): O=C(O)CC(CC(=O)O)C(=O)O [Tricarballylic Acid]
- 590 nm absorbance normalized to zero hour (substrate use), 1 hr [1]: 1.07
- 590 nm absorbance normalized to zero hour (substrate use), 2 hr [1]: 1.03
- 590 nm absorbance normalized to zero hour (substrate use), 3 hr [1]: 0.79
- 590 nm absorbance normalized to zero hour (substrate use), 4 hr [1]: 1.20
- 590 nm absorbance normalized to zero hour (substrate use), 6 hr [1]: 0.35
- 590 nm absorbance normalized to zero hour (substrate use), 8 hr [1]: 0.54
- 590 nm absorbance normalized to zero hour (substrate use), 9 hr [1]: 0.83
- 590 nm absorbance normalized to zero hour (substrate use), 10 hr [1]: 0.74
- 590 nm absorbance normalized to zero hour (substrate use), 11 hr [1]: 0.59
- Substrate use, 590 nm absorbance normalized to zero hour, 1 hr [1]: 1.07
- Substrate use, 590 nm absorbance normalized to zero hour, 5 hr [1]: 0.72
- Substrate use, 590 nm absorbance normalized to zero hour, 7 hr [1]: 0.89
- 590 nm absorbance normalized to zero hour (substrate use), 1 hr [4]: 0.20
- 590 nm absorbance normalized to zero hour (substrate use), 2 hr [4]: 0.25
- 590 nm absorbance normalized to zero hour (substrate use), 3 hr [4]: 0.29
- 590 nm absorbance normalized to zero hour (substrate use), 4 hr [4]: 0.29
- 590 nm absorbance normalized to zero hour (substrate use), 5 hr [4]: 0.32
- 590 nm absorbance normalized to zero hour (substrate use), 6 hr [4]: 0.34
- 590 nm absorbance normalized to zero hour (substrate use), 7 hr [4]: 0.36
- 590 nm absorbance normalized to zero hour (substrate use), 8 hr [4]: 0.36
- 590 nm absorbance normalized to zero hour (substrate use), 9 hr [4]: 0.39
- 590 nm absorbance normalized to zero hour (substrate use), 10 hr [4]: 0.40
- 590 nm absorbance normalized to zero hour (substrate use), 11 hr [4]: 0.38
- 590 nm absorbance normalized to zero hour (substrate use), 1 hr [5]: 0.20
- 590 nm absorbance normalized to zero hour (substrate use), 2 hr [5]: 0.25
- 590 nm absorbance normalized to zero hour (substrate use), 3 hr [5]: 0.29
- 590 nm absorbance normalized to zero hour (substrate use), 4 hr [5]: 0.29
- 590 nm absorbance normalized to zero hour (substrate use), 5 hr [5]: 0.32
- 590 nm absorbance normalized to zero hour (substrate use), 6 hr [5]: 0.34
- 590 nm absorbance normalized to zero hour (substrate use), 7 hr [5]: 0.36
- 590 nm absorbance normalized to zero hour (substrate use), 8 hr [5]: 0.36
- 590 nm absorbance normalized to zero hour (substrate use), 9 hr [5]: 0.39
- 590 nm absorbance normalized to zero hour (substrate use), 10 hr [5]: 0.40
- 590 nm absorbance normalized to zero hour (substrate use), 11 hr [5]: 0.38
